# Measured values taken from patent US10729135B2, “Methods of controlling pests using terpendoles” (priority 2017, dated 2020).
# Where two headings read alike, the source gives them in different places.
# Tests used:
# Assay in all cases: whole plant or invertebrate
# Format in all cases: in vivo
# [1] = test system: foxglove aphid (Aulacorthum solani)
# Method: (§1) A bioefficacy assay utilizing terpendole C was conducted on the lepidopterans: diamondback moth (Plutella xylostella) and common cutworm (Spodoptera litura): the whitefly, tobacco whitefly (Bemisia tabaci) the thrips, western flower thrips (Frankliniella occidentalis); the planthopper, brown rice planthopper (Nilaparvata lugens); the aphids, cotton aphid (Aphis gossypii), foxglove aphid (Aulacorthum solani), cabbage aphid (Brevicoryne brassicae), birdcherry-oat aphid (Rhopalosiphum padi), green peach aphid (Myzus persicae); and the mite, two-spotted spider mite (Tetranychus urticae). Specifically, terpendole C was diluted with acetone and 5% Tween® 20 and finally diluted with water to prepare spray solutions. Terpendole C was then applied to plants as a foliar spray at 500, 200, 50, 12.5, 3.1, 1, 0.8 and/or 0.2 ppm and/or as a soil treatment at 2,500, 1,000, 250, 63, 16, 4 and/or 1 ppm. Pests were then placed on the plant or in the soil. Further, mortality and appetite suppression were recorded at 6, 7 and/or 13 days after treatment (“DAT”) and are reported in Tables 2 and 3, below, respectively.
# [2] = test system: diamondback moth (Plutella xylostella)
# Method: as §1
# [3] = test system: western flower thrips (Frankliniella occidentalis)
# Method: as §1
# [4] = test system: two-spotted spider mite (Tetranychus urticae); conditions: Kidney Bean, All stages; for mortality at 12.5 ppm / mortality at 50 ppm / mortality at 200 ppm / mortality at 500 ppm: Tetranychus urticae, read-out: Mortality score; for Appetite suppression score: key: 0 = no to little suppression; 1 = about 10% suppression; 2 = about 25% suppression; 3 = about 60% suppression; 4 = 70-100% suppression
# Method: as §1
# [5] = test system: tobacco whitefly (Bemisia tabaci); conditions: Cabbage, 1st instar, 7 DAT
# Method: as §1
smiles,measurement,setting,value
"CC(C)=C[C@H]1O[C@H]2[C@H]3O[C@@]34[C@H](CC[C@@]3(C)[C@@]4(O)CC[C@H]4Cc5c([nH]c6ccccc56)[C@@]43C)O[C@@H]2C(C)(C)O1 [Terpendole C, terpendole C]",Appetite suppression score,"[1]; 12.5 ppm, Kidney Bean, Adult, 6 DAT",0
same,Appetite suppression score,"[1]; 50 ppm, Kidney Bean, Adult, 6 DAT",0
same,Appetite suppression score,"[1]; 200 ppm, Kidney Bean, Adult, 6 DAT",0
same,Appetite suppression score,"[1]; 500 ppm, Kidney Bean, Adult, 6 DAT",2 (2 = about 25% suppression)
same,mortality at 12.5 ppm,"[1]; Aulacorthum solani, 144 h, 12.5 ppm, Kidney Bean, Adult, 6 DAT, read-out: Mortality score",< 29%
same,mortality at 50 ppm,"[1]; Aulacorthum solani, 144 h, 50 ppm, Kidney Bean, Adult, 6 DAT, read-out: Mortality score",< 29%
same,mortality at 200 ppm,"[1]; Aulacorthum solani, 144 h, 200 ppm, Kidney Bean, Adult, 6 DAT, read-out: Mortality score (converted)",50%
same,mortality at 500 ppm,"[1]; Aulacorthum solani, 144 h, 500 ppm, Kidney Bean, Adult, 6 DAT, read-out: Mortality score (converted)",75%
same,control of foxglove aphids (in words),[1]; summary of Table 2,effectively controlled
same,Appetite suppression score,"[2]; 12.5 ppm, Cabbage, 3rd instar, 6 DAT",0
same,Appetite suppression score,"[2]; 50 ppm, Cabbage, 3rd instar, 6 DAT",0
same,Appetite suppression score,"[2]; 200 ppm, Cabbage, 3rd instar, 6 DAT",3 (3 = about 60% suppression)
same,Appetite suppression score,"[2]; 500 ppm, Cabbage, 3rd instar, 6 DAT",4 (4 = 70-100% suppression)
same,mortality at 12.5 ppm,"[2]; Plutella xylostella, 144 h, 12.5 ppm, Cabbage, 3rd instar, 6 DAT, read-out: Mortality score (converted)",50%
same,mortality at 50 ppm,"[2]; Plutella xylostella, 144 h, 50 ppm, Cabbage, 3rd instar, 6 DAT, read-out: Mortality score (converted)",50%
same,mortality at 200 ppm,"[2]; Plutella xylostella, 144 h, 200 ppm, Cabbage, 3rd instar, 6 DAT, read-out: Mortality score (converted)",90%
same,mortality at 500 ppm,"[2]; Plutella xylostella, 144 h, 500 ppm, Cabbage, 3rd instar, 6 DAT, read-out: Mortality score (converted)",100%
same,control of diamondback moth (in words),[2]; either by killing the larvae or suppressing the appetite of the larvae,effectively controlled
same,Appetite suppression score,"[3]; 12.5 ppm, Kidney Bean, 1st-2nd instar, 6 DAT",3-4
same,Appetite suppression score,"[3]; 50 ppm, Kidney Bean, 1st-2nd instar, 6 DAT",3-4
same,Appetite suppression score,"[3]; 200 ppm, Kidney Bean, 1st-2nd instar, 6 DAT",3-4
same,Appetite suppression score,"[3]; 500 ppm, Kidney Bean, 1st-2nd instar, 6 DAT",3-4
same,mortality at 0.2 ppm,"[3]; Frankliniella occidentalis, 144 h, 0.2 ppm, Kidney Bean, 1st-2nd instar, 6 DAT, read-out: Mortality score",< 29%
same,mortality at 0.8 ppm,"[3]; Frankliniella occidentalis, 144 h, 0.8 ppm, Kidney Bean, 1st-2nd instar, 6 DAT, read-out: Mortality score",< 29%
same,mortality at 3.1 ppm,"[3]; Frankliniella occidentalis, 144 h, 3.1 ppm, Kidney Bean, 1st-2nd instar, 6 DAT, read-out: Mortality score",< 29%
same,mortality at 12.5 ppm,"[3]; Frankliniella occidentalis, 144 h, 12.5 ppm, Kidney Bean, 1st-2nd instar, 6 DAT, read-out: Mortality score",< 29%
same,mortality at 50 ppm,"[3]; Frankliniella occidentalis, 144 h, 50 ppm, Kidney Bean, 1st-2nd instar, 6 DAT, read-out: Mortality score",< 29%
same,mortality at 200 ppm,"[3]; Frankliniella occidentalis, 144 h, 200 ppm, Kidney Bean, 1st-2nd instar, 6 DAT, read-out: Mortality score",< 29%
same,mortality at 500 ppm,"[3]; Frankliniella occidentalis, 144 h, 500 ppm, Kidney Bean, 1st-2nd instar, 6 DAT, read-out: Mortality score",< 29%
same,control of the thrips (in words),[3]; summary of results,significantly controlled
same,Appetite suppression score,"[4]; 12.5 ppm, 7 DAT",0
same,Appetite suppression score,"[4]; 12.5 ppm, 13 DAT",0
same,Appetite suppression score,"[4]; 50 ppm, 7 DAT",0
same,Appetite suppression score,"[4]; 50 ppm, 13 DAT",0
same,Appetite suppression score,"[4]; 200 ppm, 7 DAT",0
same,Appetite suppression score,"[4]; 200 ppm, 13 DAT",0
same,Appetite suppression score,"[4]; 500 ppm, 7 DAT",0
same,Appetite suppression score,"[4]; 500 ppm, 13 DAT",0
same,mortality at 12.5 ppm,"[4]; 168 h, 12.5 ppm, 7 DAT",< 29%
same,mortality at 50 ppm,"[4]; 168 h, 50 ppm, 7 DAT",< 29%
same,mortality at 200 ppm,"[4]; 168 h, 200 ppm, 7 DAT",< 29%
same,mortality at 500 ppm,"[4]; 168 h, 500 ppm, 7 DAT",< 29%
same,mortality at 12.5 ppm,"[4]; 312 h, 12.5 ppm, 13 DAT",< 29%
same,mortality at 50 ppm,"[4]; 312 h, 50 ppm, 13 DAT",< 29%
same,mortality at 200 ppm,"[4]; 312 h, 200 ppm, 13 DAT",< 29%
same,mortality at 500 ppm,"[4]; 312 h, 500 ppm, 13 DAT",< 29%
same,Mortality score,[5]; 12.5 ppm,0-2
same,mortality at 0.8 ppm,"[5]; Bemisia tabaci, 168 h, 0.8 ppm, read-out: Mortality score",< 29%
same,mortality at 1 ppm,"[5]; Bemisia tabaci, 168 h, 1 ppm, read-out: Mortality score (converted)",50%
